Experimental data taken from US9180111B2, “Reduction in complement activation and inflammation during tissue injury by carotenoids, carotenoid analogs, or derivatives thereof” (Cardax Pharma, Inc., priority 2005, dated 2015).

Columns and labels:
[1] = Determination of aqueous solubility/dispersibility; type: physicochemical; details: deionized water
Protocol: (§1) 30.13 mg of 3 was added to 1 mL of USP-purified water. The sample was rotated for 2 hours, then centrifuged for 5 minutes. After centrifuging, solid was visible in the bottom of the tube. A 125-μL aliquot of the solution was then diluted to 25 mL. The sample was analyzed by UV/Vis spectroscopy at 436 nm, and the absorbance was compared to a standard curve compiled from 4 standards of known concentration. The concentration of the original supernatant was calculated to be 2.85 mg/mL and the absorptivity was 36.94 AU*mL/cm*mg. Slight error may have been introduced by the small size of the original aliquot.
as §1, with “Next, 30.80” for “30.13”, “9” for “3”, “411” for “436”, “29.27” for “2.85”, “2.90” for “36.94”

[2] = Plasma and tissue concentrations of non-esterified, free astaxanthin at the end of reperfusion; type: in vivo, rabbit; details: rabbits, DDA 50 mg/kg i.v. for 4 days, end of 3 h reperfusion
Excerpt: To determine the plasma and tissue concentrations of non-esterified, free astaxanthin in blood and organs, samples were taken at the end of reperfusion in selected rabbits (n=5) treated with DDA, and determined by methods previously described (Osterlie et al., 2000). Non-esterified, free astaxanthin, in vivo, is generated after cleavage of the water-dispersible disuccinate diester to monosuccinate, and subsequently to non-esterified, free astaxanthin by the intrinsic esterase activity of serum albumin (Curry et al., 1999), or by non-specific esterase activity in plasma and solid organs (Jensen et al., 1999). Non-esterified, free astaxanthin then accumulates in myocardium and other tissues after plasma clearance in a dose-dependent manner after both oral (Showalter et al., 2004) and intravenous administration (Gross and Lockwood 2004a,b).

[3] = test system: CRP; experiment: CRP deposition in heart tissue by indirect immunofluorescence; type: in vivo, rabbit; details: rabbits, 50 mg/kg i.v. 4 days, 30 min ischemia, 3 h reperfusion; p<0.05
Protocol: (§2) The immunofluorescent method for detection of CRP was performed essentially as described previously (Lauver et al., 2005). Briefly, tissue samples used for infarct size determination were fixed in 10% buffered formalin immediately after the completion of the experimental protocol. The tissue samples were embedded in paraffin blocks and cut into sections of 2 μm in thickness, which were then mounted on glass slides. Two consecutive sections (mirror images) from a single heart slice were mounted on each slide. The slides were deparaffinized and subjected to antigen unmasking using a commercially available kit for this purpose (Vector Laboratories, Burlingame, Calif.). After blocking for 30 minutes, primary antibodies were incubated at room temperature in a humidity chamber for 45 minutes. One section per slide was incubated with a chicken anti-rabbit CRP antibody (5 μg/ml final concentration, Strategic BioSolutions, Newark, Del.) and the other section was incubated with a chicken anti-rabbit MAC antibody (1:2500 final dilution, developed in conjunction with Lampire Biological Laboratories, Pipersville, Pa.). […] Images were analyzed using IP Lab (Scanalytics, Inc., Fairfax, Va.) software to determine mean fluorescence intensity per heart section. […]

[4] = test system: MAC (C5b-9); experiment: MAC deposition in heart tissue by indirect immunofluorescence; type: in vivo, rabbit; details: rabbits, 50 mg/kg i.v. 4 days, 30 min ischemia, 3 h reperfusion; p<0.05
Protocol: as §2

[5] = test system: rabbit complement system; experiment: Complement-mediated red blood cell (RBC) hemolysis assay, ex vivo, rabbit plasma on human erythrocytes; type: in vivo; details: plasma after 3 h reperfusion, 50 mg/kg, 4 days; p<0.01
Protocol: A red blood cell (RBC) lysis assay was used to determine whether the pretreatment with DDA compared to placebo-treated animals was able to inhibit the rabbit complement system. The ex vivo analysis of complement activity is based on the C5b-9-dependent lysis of human red blood cells upon exposure to rabbit plasma. Complement-mediated RBC hemolysis was assessed by a turbidometric method described previously (Pascual et al., 1990). The hemolysis assay is an accepted method of assessing the complement titer of plasma or serum samples (Whaley, 1985). Rabbit plasma was obtained from whole blood samples drawn from rabbits that were pretreated with DDA (50 mg/kg, 4 days, n=5) or sterile 0.9% sodium chloride solution (4 days, n=5). After obtaining informed consent, human whole blood for the isolation of red blood cells was obtained by venipuncture of the forearm vein of a healthy donor who had not been exposed to any medication for the past seven days. The cells were washed three times in 10 ml phosphate buffered saline (PBS, pH 7.4) and diluted in PBS to achieve a final RBC concentration of 1×10^8 cells/ml. The assay was initiated by the addition of 15 μl of diluted human RBCs to 185 μl of rabbit plasma, and the light transmittance was monitored for 5 min. The final assay volume was 200 μl. […]

[6] = oral administration to black mice (Showalter et al. 2004); cited from earlier work

CC1=C(/C=C/C(C)=C/C=C/C(C)=C/C=C/C=C(C)/C=C/C=C(C)/C=C/C2=C(C)C(=O)C(OC(=O)CCC(=O)O)CC2(C)C)C(C)(C)CC(OC(=O)CCC(=O)O)C1=O (stereo not shown) [DDA, disodium disuccinate astaxanthin]
maximum aqueous dispersibility [1]: greater than 10 mM | mean myocardial tissue concentration of non-esterified astaxanthin [2]: > 10 µM | mean plasma concentration of non-esterified, free astaxanthin [2]: 222 ± 51 nM | CRP deposition in infarct region (fluorescence intensity) versus saline [3]: significantly reduced fluorescence | MAC deposition in infarct region (fluorescence intensity) versus saline [4]: significantly reduced fluorescence | rabbit plasma-induced human erythrocyte hemolysis versus placebo [5]: significantly attenuated | plasma clearance of free astaxanthin and tissue/serum ratios [6]: Rapid plasma clearance of free astaxanthin, and excellent myocardium- and hepatic/serum ratios
